“And” between values parts separate entries of the source, which are not always exact repeats. Equal values may be shown once. Inconclusive results and toxic doses are left out.

Our source for the T/C values is PubChem BioAssay AID248 (DTP/NCI, 2004).

The subject of the experiment is L1210 leukemia ip in BDF1 mice, survival T/C. The experiment is described as follows: NCI In Vivo Anticancer Drug Screen. Data for tumor model L1210 Leukemia (intraperitoneal) in B6D2F1 (BDF1) mice. Particulars: endpoint: mean survival time, higher = longer survival. Put shortly:
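Value reflects the ratio of survival in compound-treated mice to survival in vehicle-treated controls, with both groups carrying the same transplanted tumor.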

Where [1] appears, read: dose: 100.0 mg/kg/injection, schedule: Q01DX009 (ip), vehicle: saline with Tween-80.
The mark [2] stands for this setting: dose: 100.0 mg/kg/injection, schedule: Q04DX003 (ip), vehicle: Klucel (hydroxypropylcellulose) (HPC).
Where [3] appears, read: dose: 200.0 mg/kg/injection, schedule: Q04DX003 (ip), vehicle: Klucel (hydroxypropylcellulose) (HPC).
The mark [4] stands for this setting: dose: 100.0 mg/kg/injection, schedule: Q01DX001 (ip), vehicle: carboxymethylcellulose (CMC).
Where [5] appears, read: dose: 200.0 mg/kg/injection, schedule: Q01DX001 (ip), vehicle: carboxymethylcellulose (CMC).
[6] abbreviates: dose: 400.0 mg/kg/injection, schedule: Q01DX001 (ip), vehicle: carboxymethylcellulose (CMC).
Setting [7] is: dose: 200.0 mg/kg/injection, schedule: Q01DX009 (ip), vehicle: saline with Tween-80.
Where [8] appears, read: dose: 400.0 mg/kg/injection, schedule: Q01DX009 (ip), vehicle: saline with Tween-80.
[9] abbreviates: dose: 100.0 mg/kg/injection, schedule: Q01DX001 (ip), vehicle: saline.
Where [10] appears, read: dose: 200.0 mg/kg/injection, schedule: Q01DX001 (ip), vehicle: saline.
Setting [11] is: dose: 400.0 mg/kg/injection, schedule: Q01DX001 (ip), vehicle: saline.

`O=C(NCCBr)c1ccc(CCl)cc1`: the T/C (dose: 75.0 mg/kg/injection, schedule: Q04DX003 (ip), vehicle: Klucel (hydroxypropylcellulose) (HPC)) was 102 % of control; the T/C (dose: 100.0 mg/kg/injection, schedule: Q01DX001 (ip), vehicle: Klucel (hydroxypropylcellulose) (HPC)) was 104 % of control; the T/C (dose: 150.0 mg/kg/injection, schedule: Q04DX003 (ip), vehicle: Klucel (hydroxypropylcellulose) (HPC)) was 96 % of control; the T/C (dose: 200.0 mg/kg/injection, schedule: Q01DX001 (ip), vehicle: Klucel (hydroxypropylcellulose) (HPC)) was 95 % of control; the T/C (dose: 300.0 mg/kg/injection, schedule: Q04DX003 (ip), vehicle: Klucel (hydroxypropylcellulose) (HPC)) was 97 % of control; the T/C (dose: 400.0 mg/kg/injection, schedule: Q01DX001 (ip), vehicle: Klucel (hydroxypropylcellulose) (HPC)) was 103 % of control.
With `CCCCOC(=O)c1ccc(NC(=O)Nc2cccc(F)c2)cc1`, under setting [1], the T/C is 95 % of control.
On to `CC(=O)Cc1cc(C)c(C(C)=O)c(O)c1C(C)=O`, for which the T/C under setting [2] is 103 % of control; the T/C under setting [3] is 108 % of control; the T/C (dose: 400.0 mg/kg/injection, schedule: Q04DX003 (ip), vehicle: Klucel (hydroxypropylcellulose) (HPC)) was 105 % of control.
With `Oc1cccc2ccc(N/N=C/c3ccnc4c(O)cccc34)nc12`, the T/C reads like this: under setting [4], 93 % of control; under setting [5], 96 % of control; under setting [6], 91 % of control.
Consider `Cc1c([N+](=O)[O-])cc(C(C)(C)C)c(OC(=S)N(C)C)c1[N+](=O)[O-]`, for which the T/C is 105 % of control (dose: 25.0 mg/kg/injection, schedule: Q04DX002 (ip), vehicle: saline with Tween-80) and 86 % of control (dose: 100.0 mg/kg/injection, schedule: Q04DX002 (ip), vehicle: saline with Tween-80).
Consider `CCOC(=O)c1ccc(N)c(C(O)(C(F)(F)F)C(F)(F)F)c1`, for which the T/C was 106 % of control under setting [1], 95 % of control under setting [7] and 104 % of control under setting [8].
As for `CC(C)C[C@H](O)C(=O)O`, the T/C runs as follows: (dose: 33.0 mg/kg/injection, schedule: Q01DX009 (ip), vehicle: saline) 98 % of control; (dose: 50.0 mg/kg/injection, schedule: Q01DX009 (ip), vehicle: saline) 98 % of control; (dose: 75.0 mg/kg/injection, schedule: Q01DX009 (ip), vehicle: saline) 98 % of control; (dose: 100.0 mg/kg/injection, schedule: Q01DX009 (ip), vehicle: saline) 97 % of control; (dose: 100.0 mg/kg/injection, schedule: Q04DX003 (ip), vehicle: saline) 98 % of control; (dose: 200.0 mg/kg/injection, schedule: Q01DX009 (ip), vehicle: saline) 101 % of control. For the same compound, under “dose: 200.0 mg/kg/injection, schedule: Q04DX003 (ip), vehicle: saline”, the T/C is 100 % of control.
On to `Cc1ccc(C)c2c(CC(=O)O)c[nH]c12`, for which the T/C (dose: 100.0 mg/kg/injection, schedule: Q01DX001 (ip), vehicle: saline with Tween-80) was 100 % of control; the T/C (dose: 200.0 mg/kg/injection, schedule: Q01DX001 (ip), vehicle: saline with Tween-80) was 107 % of control; the T/C (dose: 400.0 mg/kg/injection, schedule: Q01DX001 (ip), vehicle: saline with Tween-80) is 102 % of control.
As to `CCC1CC(O)c2ccccc2O1` (stereo not given), the T/C by setting is: (dose: 100.0 mg/kg/injection, schedule: Q01DX001 (ip), vehicle: other) 103 % of control; (dose: 200.0 mg/kg/injection, schedule: Q01DX001 (ip), vehicle: other) 95 % of control; (dose: 400.0 mg/kg/injection, schedule: Q01DX001 (ip), vehicle: other) 91 % of control.
Take `CCCCOC(=N)N(CCCC)CC(C)(C)[N+](=O)[O-]`: the T/C by setting is: (dose: 44.0 mg/kg/injection, schedule: Q01DX Z (ip), vehicle: methylcellulose (MC)) 98 % of control; (dose: 100.0 mg/kg/injection, schedule: Q01DX Z (ip), vehicle: methylcellulose (MC)) 98 % of control.
With `Cc1ccc([N+](=O)[O-])cc1NC(=O)Nc1cccc2ccc(O)cc12`, the T/C was 95 % of control (dose: 100.0 mg/kg/injection, schedule: Q01DX009 (ip), vehicle: Klucel (hydroxypropylcellulose) (HPC)); 93 % of control (dose: 200.0 mg/kg/injection, schedule: Q01DX009 (ip), vehicle: Klucel (hydroxypropylcellulose) (HPC)); 104 % of control (dose: 400.0 mg/kg/injection, schedule: Q01DX009 (ip), vehicle: Klucel (hydroxypropylcellulose) (HPC)).
Consider `CNc1ccc(C(=O)O)c(Cl)c1`, for which the T/C is, setting by setting: (dose: 75.0 mg/kg/injection, schedule: Q01DX001 (ip), vehicle: saline) 95 % of control; (dose: 75.0 mg/kg/injection, schedule: Q04DX003 (ip), vehicle: saline) 97 % of control; (dose: 150.0 mg/kg/injection, schedule: Q01DX001 (ip), vehicle: saline) 98 % of control; (dose: 150.0 mg/kg/injection, schedule: Q04DX003 (ip), vehicle: saline) 111 % of control; (dose: 300.0 mg/kg/injection, schedule: Q01DX001 (ip), vehicle: saline) 93 % of control; (dose: 300.0 mg/kg/injection, schedule: Q04DX003 (ip), vehicle: saline) 103 % of control.
Take `C(=C/c1nc2ccccc2o1)/c1ccc2c(c1)OCO2`: the T/C reads like this: (dose: 100.0 mg/kg/injection, schedule: Q04DX002 (ip), vehicle: Klucel (hydroxypropylcellulose) (HPC)) 97 % of control; (dose: 200.0 mg/kg/injection, schedule: Q04DX002 (ip), vehicle: Klucel (hydroxypropylcellulose) (HPC)) 97 % of control; (dose: 400.0 mg/kg/injection, schedule: Q04DX002 (ip), vehicle: Klucel (hydroxypropylcellulose) (HPC)) 97 % of control.
Turning to `Cc1c(C(=O)O)nnn1/C=C/c1ccccc1`, the T/C (dose: 100.0 mg/kg/injection, schedule: Q04DX003 (ip), vehicle: acetone) was 103 % of control and the T/C (dose: 200.0 mg/kg/injection, schedule: Q04DX003 (ip), vehicle: acetone) was 87 % of control.
Regarding `Nc1cccc2c1-c1ccccc1/C2=N\O`, the T/C is, setting by setting: under setting [4], 97 % of control; under setting [5], 105 % of control; under setting [6], 103 % of control.
For `O=C1/C(=N/O)CCCc2ccccc21`, in that order: 103 % of control, 97 % of control and 103 % of control.
Turning to `CC(C)CCOC(OCCC(C)C)OCCC(C)C`, the T/C under setting [9] is 100 % of control, the T/C under setting [10] is 97 % of control and the T/C under setting [11] is 105 % of control.
As for `O=C1C=Cc2cccc3cccc1c23`, the T/C was 98 % of control under setting [2] and 112 % of control under setting [3].
In the case of `Nc1ccc2ncccc2c1N`, the T/C is, setting by setting: (dose: 100.0 mg/kg/injection, schedule: Q04DX002 (ip), vehicle: saline) 107 % of control; (dose: 200.0 mg/kg/injection, schedule: Q04DX002 (ip), vehicle: saline) 100 % of control; (dose: 400.0 mg/kg/injection, schedule: Q04DX002 (ip), vehicle: saline) 87 % of control.
Take `O=C(Nc1ccc(NC(=O)Nc2ccc(C3=NCCN3)cc2)cc1)Nc1ccc(C2=NCCN2)cc1`: the T/C was 100 % of control and 115 % of control (dose: 110.0 mg/kg/injection, schedule: Q01DX Z (ip), vehicle: carboxymethylcellulose (CMC)); 98 % of control (dose: 240.0 mg/kg/injection, schedule: Q01DX Z (oral), vehicle: carboxymethylcellulose (CMC)); 160 % of control (dose: 303.0 mg/kg/injection, schedule: Q01DX Z (ip), vehicle: carboxymethylcellulose (CMC)); 98 % of control (dose: 375.0 mg/kg/injection, schedule: Q01DX Z (ip), vehicle: carboxymethylcellulose (CMC)); 93 % of control (dose: 455.0 mg/kg/injection, schedule: Q01DX Z (ip), vehicle: carboxymethylcellulose (CMC)); 104 % of control (dose: 480.0 mg/kg/injection, schedule: Q01DX Z (oral), vehicle: carboxymethylcellulose (CMC)). Also, the T/C (dose: 960.0 mg/kg/injection, schedule: Q01DX Z (oral), vehicle: carboxymethylcellulose (CMC)) was 107 % of control.
As to `CCCCCCCCCCCCCCCC(=O)N(c1ccc(NC(=O)Nc2ccc(N(C(=O)CCCCCCCCCCCCCCC)C(C)CCCN(CC)CC)cc2)cc1)C(C)CCCN(CC)CC` (stereo not given), the T/C under setting [1] was 90 % of control, the T/C under setting [7] is 92 % of control and the T/C under setting [8] is 97 % of control.
Turning to `OCC(O)C(O)C(O)CC(c1ccc(Cl)cc1)c1ccc(Cl)cc1` (stereo not given), the T/C (dose: 50.0 mg/kg/injection, schedule: Q01DX001 (ip), vehicle: saline) was 102 % of control; the T/C under setting [9] is 102 % of control; the T/C under setting [10] was 106 % of control; the T/C under setting [11] was 107 % of control.
